In ChEMBL document CHEMBL1152041, “Design, Synthesis and Pharmacology of Cannabimimetic Indoles” (Bioorg Med Chem Lett, 1994):

How the values were obtained:
[1] = test system: Mus musculus; test: Tested in vivo for cannabimimetic activity in mouse; assay type: functional
[2] = biological target: Cannabinoid receptor (Homo sapiens, UniProt P34972+P21554); test: Binding affinity was determined in vitro against cannabinoid receptor by ability to displace [3H]CP-55940; assay type: protein assay

| SMILES | ED50 [1] [µmol/kg] | Ki [2] [nM] |
| --- | --- | --- |
| CCCCCCn1c(C)c(C(=O)c2cccc3ccccc23)c2ccccc21 | 14 | 48 |
| CC(C)=CC(=O)c1c(C)n(CCN2CCOCC2)c2ccccc12 | > 103 | > 10000 |
| CCCCC[C@@H](C)n1c(C)c(C(=O)c2cccc3ccccc23)c2ccccc21 | 21.5 | 81 |
| Cc1c(C(=O)c2cccc3ccccc23)c2ccccc2n1CCC1CCCCC1 | 65.8 | 46 |
| Cc1c(C(=O)c2cccc3ccccc23)c2cccc3c2n1[C@H](CN1CCOCC1)CO3 [WIN-552122] | 6.53 | – |
| CCCCn1c(C)c(C(=O)c2cccc3ccccc23)c2ccccc21 | – | 22 |
| CC(=O)c1c(C)n(CCN2CCOCC2)c2ccccc12 | > 350 | > 10000 |
| CCCCCn1c(C)c(C(=O)c2cccc3ccccc23)c2ccccc21 | 2.62 | 9.5 |
| CCCCCC(C)n1c(C)c(C(=O)c2cccc3ccccc23)c2ccccc21 (racemic) | 35.6 | 33 |
| CCCCCc1cc(O)c2c(c1)OC(C)(C)[C@@H]1CCC(C)=C[C@@H]21 [DRONABINOL] | 4.7 | – |
| CCCCCCC(C)(C)c1ccc([C@@H]2C[C@H](O)CC[C@H]2CCCO)c(O)c1 [CP-55940] | 0.55 | – |
| CCCCCCCn1c(C)c(C(=O)c2cccc3ccccc23)c2ccccc21 | > 189 | > 10000 |
| Cc1c(C(=O)c2cccc3ccccc23)c2ccccc2n1CCc1ccccc1 | > 257 | 1250 |
| CCCCC[C@H](C)n1c(C)c(C(=O)c2cccc3ccccc23)c2ccccc21 | – | 72 |
